Drawing on ChEMBL document CHEMBL4334528, “Structure, Biosynthesis, and Bioactivity of Photoditritide from Photorhabdus temperata Meg1” (J Nat Prod, 2019), this text covers IC50 and MIC for five molecules.

Structures are written as SMILES. Converted amounts (≈) assume the structure as drawn. Some results are limits rather than exact numbers.

Test [1] concerns L6. In words: Cytotoxicity against rat L6 cells measured after 72 hrs by alamar blue dye based fluorimetry analysis. It is filed as cell-based. Conditions: L6, 72 h.
The test system of test [2] is Micrococcus luteus. In words: Antibacterial activity against Micrococcus luteus assessed as bacterial growth inhibition by CLSI protocol based broth microdilution assay. The class given is functional.
The subject of test [3] is Trypanosoma cruzi. In words: Antitrypanosomal activity against Trypanosoma cruzi Tulahuen C4 infected in rat L6 cells measured after 96 hrs by inverted microscopy analysis. It is filed as functional, organism-based. Conditions: Tulahuen C4, L6, 96 h.
Test [4] relates to Leishmania donovani. In words: Antileishmanial activity against Leishmania donovani MHOM/ET/67/L82 measured after 72 hrs by alamar blue dye based fluorimetry analysis. The class given is functional, organism-based. The following applies: MHOM/ET/67/L82, 72 h.
Test [5] deals with Plasmodium falciparum. In words: Antiplasmodial activity against Plasmodium falciparum NF54 measured after 24 hrs in presence of [3H] hypoxanthine by liquid scintillation counter analysis. The class given is functional, organism-based.
In test [6] the test system is Escherichia coli. In words: Antibacterial activity against Escherichia coli OP50 assessed as bacterial growth inhibition by CLSI protocol based broth microdilution assay. The class given is functional.
In test [7] the test system is Trypanosoma brucei rhodesiense. Briefly: Antitrypanosomal activity against Trypanosoma brucei rhodesiense STI B900 measured after 72 hrs by alamar blue dye based fluorimetry analysis. The class given is functional, organism-based. Conditions: STI B900, 72 h.
Test [8] relates to Clavispora lusitaniae. Briefly: Antifungal activity against Candida lusitaniae DSM 70102 assessed as fungal growth inhibition by EUCAST method. It is filed as functional.

On to `COc1cc([C@@H]2c3cc4c(cc3[C@H](O)[C@H]3COC(=O)[C@H]23)OCO4)cc(OC)c1OC` [PODOFILOX], for which the IC50 in test [1] was found to be 0.007 µM.

On to `CC1(C)S[C@@H]2[C@H](NC(=O)[C@H](N)c3ccccc3)C(=O)N2[C@H]1C(=O)O` [AMPICILLIN], for which the MIC in test [2] came out at 4.2 µM (≈ 1.47 µg/mL).

Regarding `N=C(N)NCCCC[C@H]1NC(=O)[C@H](Cc2c[nH]c3ccccc23)NC(=O)[C@H](Cc2ccc(O)cc2)NC(=O)[C@@H](Cc2c[nH]c3ccccc23)NC(=O)[C@@H](Cc2ccc(O)cc2)NC(=O)[C@@H](CCCCNC(=N)N)NC1=O`, the IC50 is 71 µM in test [3]; more than 100 µM in test [4]; 27 µM in test [5]; 83 µM in test [1]; 13 µM in test [7]. Besides, the MIC was 3 µM (≈ 3.12 µg/mL) in test [2], 24 µM (≈ 24.9 µg/mL) in test [6] and more than 96 µM in test [8].

Turning to `O=C(N[C@H](CO)[C@H](O)c1ccc([N+](=O)[O-])cc1)C(Cl)Cl` [CHLORAMPHENICOL], in test [6], the MIC stood at 0.6 µM (≈ 0.194 µg/mL).

Regarding `C[C@@H]1[C@H](O)[C@@H](C)/C=C/C=C/C=C/C=C/C=C/C=C/C=C/[C@H](O[C@@H]2O[C@H](C)[C@@H](O)[C@H](N)[C@@H]2O)C[C@@H]2O[C@](O)(C[C@@H](O)C[C@@H](O)[C@H](O)CC[C@@H](O)C[C@@H](O)CC(=O)O[C@H]1C)C[C@H](O)[C@H]2C(=O)O` [AMPHOTERICIN B], the MIC in test [8] is 0.42 µM (≈ 0.388 µg/mL).
